From patent US20120003661A1, “METHODS AND DEVICES FOR THE SELECTIVE DETECTION OF MICROORGANISMS” (C3 JIAN, INC., priority 2010, published 2012)
Entries after “also recorded” stand apart in the source; their conditions may differ.

Tested on: bacteria, fungi, and/or yeasts
Assay type: binding
Conditions: microorganism(s) listed as target(s) of the targeting peptide; wrapped target lists given cell by cell

Substance	Target(s)
PF-135 (PPARPARIPQTPTLHGASLFRQRS)	S. epidermidis, M. luteus, E. coli,; also recorded: P. aeruginosa, MRSA, C. jeikeium,; also recorded: M. smegmatis
1T-291 (DMKIIKLYIKILSFLFIKYCNKKLNSVKLKA)	A. naeslundii, F. nucleatum, P. gingivalis,; also recorded: T. denticola, S. mitis,; also recorded: S. mutans, S. oralis
PF-038 (MAYKDEGKETKFAVKGYKD)	M. luteus
TT-306 (KILNEAEGKLLKVIEKNGEIDIEEI)	F. nucleatum
PF-131 (RRAAARTKGNRR)	S. epidermidis, E. coli, MRSA, C. jeikeium
PF-149 (GKVSVLTRVPRSLGGAPANQ)	S. epidermidis, M. luteus, E. coli,; also recorded: MRSA, C. jeikeium
PF-142 (GIDRGCQAAR)	S. mutans
PF-039 (MLEEKNKSL)	P. mirabilis, C. jeikeium
PF-139 (ALSKPAIQARTLCRRQDPP)	S. epidermidis, M. luteus, P. mirabilis,; also recorded: E. coli, P. aeruginosa,; also recorded: C. albicans, S. pneumoniae, E. faecalis,; also recorded: C. jeikeium, C. jejuni
PF-025 (LLIIFRLWLELKWKNKK)	S. epidermidis, M. luteus, P. mirabilis,; also recorded: E. coli, P. aeruginosa,; also recorded: MRSA, E. faecalis, C. jejuni

Same assay, conditions: microorganism(s) that the targeting peptide binds, as listed in Table 2

Substance	Target(s)
PF-798 (ALHSKGIKVMADWVPDQMYA)	S. mutans
PF-C062 (PLARATEVVATLFIICSLLLYLTR)	A. naeslundii, F. nucleatum, P. gingivalis,; also recorded: S. mutans, T. denticola
PF-X (TFFRLFNRSFTQALGK)	S. mutans
PF-C194 (NTNDLLQAFELMGLGMAGVFIVLGILYIVAELLIKIFPVNN)	A. naeslundii, F. nucleatum, P. gingivalis,; also recorded: S. mutans, T. denticola
PF-C050 (QGLARPVLRRIPL)	A. naeslundii, S. mutans

Same assay, conditions: microorganism(s) the targeting peptide binds, as listed in Table 2

Substance	Target(s)
1T-128 (SGSAIRMLEIATKMLKR)	A. naeslundii, P. gingivalis, S. epidermidis,; also recorded: S. gordonii, S. mitis,; also recorded: S. mutans, S. oralis, S. salivarious,; also recorded: S. sanguinis
1T-41 (KRGSKIVIAIAVVLIVLAGVWVW)	S. mutans, S. aureus, S. epidermidis,; also recorded: C. jeikeium, C. striatum,; also recorded: P. aeruginosa
1T-31 (NATGTDIGEVTLTLGRFS)	S. mutans, P. aeruginosa
1T-153 (YIACPGYFY)	A. naeslundii, F. nucleatum, P. gingivalis,; also recorded: S. epidermidis, S. gordonii,; also recorded: S. mitis, S. mutans, S. oralis,; also recorded: S. salivarious, S. sanguinis
1T-162 (QKAKEESDRKAAVSYNGFHRVNVVSIPK)	A. naeslundii, F. nucleatum, P. gingivalis,; also recorded: T. denticola, S. gordonii,; also recorded: S. mitis, S. mutans, S. oralis,; also recorded: S. salivarious, S. sanguinis
1T-60 (YLTSLGLDAAEQAQGLLTILKG)	S. aureus, S. epidermidis, C. jeikeium,; also recorded: C. striatum, P. aeruginosa
1T-124 (LFDERNKIA)	S. mitis, S. mutans, S. oralis
1T-71 (KIDTNQWPPNKEG)	P. aeruginosa
1T-115 (LLIERFSNHH)	A. naeslundii, F. nucleatum, P. gingivalis,; also recorded: S. epidermidis, S. gordonii,; also recorded: S. mitis, S. mutans, S. oralis,; also recorded: S. salivarious, S. sanguinis
1T-169 (FARVRRLHQNRILTQPLTNLKYCLRQPIYSD)	A. naeslundii, F. nucleatum, P. gingivalis,; also recorded: S. epidermidis, S. gordonii,; also recorded: S. mitis, S. mutans, S. oralis,; also recorded: S. salivarious, S. sanguinis
1T-183 (PLRSFVAEKAEHAFRVVRIADFDFGHS)	A. naeslundii, F. nucleatum, P. gingivalis,; also recorded: S. epidermidis, S. gordonii,; also recorded: S. mitis, S. mutans, S. oralis,; also recorded: S. salivarious, S. sanguinis
1T-86 (HRKNPVLGVGRRHRAHNVA)	S. mitis, S. oralis, S. salivarious
